# Experimental data taken from paper PMC12766724, “Synthesis, Anthelmintic Activity, and Mechanism of Action of 5‑Aryl‑1H‑indoles” (Journal of Agricultural and Food Chemistry, 2025).
# Experiments:
# Skin fibroblasts (BJ) = assay: Resazurin assay, 3-day treatment; type: cell-based, human; details: for Average viability (signal intensity relative to control): BJ
# [1] = test system: human keratinocytes (HaCaT); assay: Resazurin assay, 3-day treatment; type: cell-based
# [2] = test system: C. elegans DA1316 avr-14(ad1305) I; avr-15(vu227) glc-1(pk54) V.; assay: Chitinase assay (reproductive capacity); type: in vivo; details: Caenorhabditis elegans; ivermectin-resistant strain
# Protocol: C. elegans strains used in this study were N2 (wild-type), levamisole-resistant strains ZZ15 (lev-8(x15) X) and […] (lev-1(e211) IV), ivermectin-resistant strain DA1316 (avr-14(ad1305) I; avr-15(vu227) glc-1(pk54) V), mebendazole-resistant strain […] (ben-1(e1880) III), and three strains with mutations in succinate dehydrogenase, RP2699, RP2700, and RP2702. The worms were cultivated on Nematode Growth Medium agar plates seeded with Escherichia coli OP50 in 20 °C according to the standard cultivation protocols. Strains RP2699, RP2700, and RP2702 were generated by Prof. Peter Roy’s group. All other strains and bacteria were purchased from the Caenorhabditis Genetics Center (CGC, Minneapolis, MN).
# The effect of compounds on C. elegans was evaluated using the Chitinase assay as we described previously.
# Lastly, strain DA1316 has mutations in three genes encoding subunits of the glutamate-gated chloride channel and is highly resistant to avermectins.
# C. elegans N2 wild-type = assay: Chitinase assay (reproductive capacity); type: in vivo, Caenorhabditis elegans; details: Caenorhabditis elegans
# Outline: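 Wild-type N2 L1 larvae were exposed to compounds for 4 days, then populations were examined microscopically and Chitinase activity, released at hatching, was measured as a read-out of reproduction. Failure from acute or reproductive toxicity or developmental defects is detected.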
# [3] = test system: age unsynchronized Ditylenchus destructor; assay: Motility on WMicrotracker ONE; type: in vivo
# Outline: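 Age-unsynchronized populations of Ditylenchus destructor were maintained following a previously described protocol. Their motility was measured on the WMicrotracker ONE platform using previously published methods. The instrument scores the activity of small animals by counting how often infrared light microbeams passing through the wells of a microtiter plate are interrupted. Activity was recorded before treatment and during exposure to compounds.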
# xL3 H. contortus = assay: Motility on WMicrotracker ONE; type: in vivo; details: 48 h; for reduction of movement rates: 50 µM
# Protocol: H. contortus L3 were obtained by culturing feces collected from experimentally infected sheep (located in the facilities of the Instituto de Ganadera de Montaa, Leon, Spain) in aerated and humidified closed containers, which were placed in a climatic chamber at 28 °C for 5 days. Larvae were recovered by immersing the feces in tap water for 5 h to stimulate migration. The suspension was then filtered through a 20 μm sieve. Subsequently, larvae were collected using a Baermann apparatus with a 30 μm mesh overnight at 23 °C. Exsheathment of L3 larvae was performed by incubating them in 0.1% (v/v) sodium hypochlorite for 1 h at room temperature on a rotator, followed by three washes with tap water to remove residual bleach.
# The effect of compounds on motility of H. contortus, D. destructor, and H. schachtii was evaluated using the WMicrotracker ONE platform according to previously published protocols. ,
# We mostly focused on the three derivatives containing a halogen substitution in the 4-position of the phenyl ring, namely, i-19, i-20, and i-21. An initial experiment was also conducted with a representative compound with an aliphatic chain, namely, i-12, in which we observed only a relatively small effect on the motility of larvae (approximately 30% decrease in motility of nematodes treated with 100 μM of the compound after 48 h in comparison to vehicle-treated worms; Figure S2.7). […] The effect was apparent starting at 3 h and beyond. At 48 h, the latest time point was tested, and the movement rates of nematodes exposed to 50 μM of i-19, i-20, and i-21 were reduced by 76%, 80%, and 82%, respectively.
# [4] = 10 µM group, initial (prior to the treatment)
# [5] = 50 µM group, initial (prior to the treatment)
# [6] = 100 µM group, initial (prior to the treatment)
SMILES,Average viability (signal intensity relative to control) (Skin fibroblasts (BJ); 10 µM),Average viability (signal intensity relative to control) (Skin fibroblasts (BJ); 20 µM),Average viability (signal intensity relative to control) (Skin fibroblasts (BJ); 40 µM),Average viability (signal intensity relative to control) ([1]; 10 µM),Average viability (signal intensity relative to control) ([1]; 20 µM),Average viability (signal intensity relative to control) ([1]; 40 µM),IC50 [2],IC50 (C. elegans N2 wild-type),"average activity counts [3, 4]","average activity counts ([3]; 10 µM, 48 h)","average activity counts ([3]; 10 µM, 72 h)","average activity counts [3, 5]","average activity counts ([3]; 50 µM, 48 h)","average activity counts ([3]; 50 µM, 72 h)","average activity counts [3, 6]","average activity counts ([3]; 100 µM, 48 h)","average activity counts ([3]; 100 µM, 72 h)",reduction of movement rates (xL3 H. contortus),"decrease of mean activity counts ([3]; 100 µM, 72 h)",other results
CCCOc1ccc(-c2ccc3[nH]ccc3c2)cc1 [i-13],0.97 ± 0.01,1 ± 0.05,0.98 ± 0.03,0.97 ± 0.01,0.98 ± 0.02,0.91 ± 0.04,8.45 ± 1.36 µM,7.09 ± 0.72 µM,204,200,207,221,211,219,239,211,228,–,–,–
FC(F)(F)Oc1ccc(-c2ccc3[nH]ccc3c2)cc1 [i-21],0.94 ± 0.02,0.96 ± 0.04,0.87 ± 0.03,0.96 ± 0.02,0.96 ± 0.04,0.74 ± 0.11,10.4 ± 0.41 µM,8.58 ± 0.99 µM,227,220,183,223,172,139,221,158,94,82%,57%,–
CCCOc1cccc(-c2ccc3[nH]ccc3c2)c1 [i-12],0.96 ± 0.01,1.04 ± 0.05,0.96 ± 0.03,1.06 ± 0.14,1.09 ± 0.13,1.06 ± 0.09,7.59 ± 1.99 µM,9.6 ± 0.9 µM,220,197,218,201,186,202,235,207,202,–,–,decrease in motility in comparison to vehicle-treated worms (xL3 H. contortus; 100 µM): approximately 30%
Fc1ccc(-c2ccc3[nH]ccc3c2)cc1 [i-20],0.96 ± 0.01,0.98 ± 0.02,0.96 ± 0.03,0.97 ± 0.01,0.99 ± 0.02,0.94 ± 0.02,10.4 ± 1.09 µM,9.05 ± 0.62 µM,215,200,187,223,84,64,226,2,2,80%,99%,–
Clc1ccc(-c2ccc3[nH]ccc3c2)cc1 [i-19],0.98 ± 0.02,1.02 ± 0.06,1 ± 0.03,1.01 ± 0.02,1.02 ± 0.05,0.86 ± 0.1,5.15 ± 1.01 µM,6.67 ± 0.6 µM,226,227,232,239,85,67,233,113,88,76%,62%,effect on the viability of fibroblasts (Skin fibroblasts (BJ); up to 40 μM): no effect; decrease in viability ([1]; 40 µM): approximately 5%
